Common to all, as to type: functional
Common to all, as to conditions: read-out: IZ

The test system of one assay is Candida albicans. The assay is described as follows: Antifungal activity against Candida albicans at 200 ug/disk after 24 hrs by disk diffusion method. On the technique in general: Agar diffusion results depend on both activity and mobility in agar.
A further assay has as its system Escherichia coli. The assay is described as follows: Antibiotic activity against Escherichia coli at 200 ug/disk after 24 hrs by disk diffusion method.
The next assay deals with Staphylococcus aureus. The assay is described as follows: Antibiotic activity against Staphylococcus aureus at 200 ug/disk after 24 hrs by disk diffusion method.

Results on two molecules are retold here after ChEMBL document CHEMBL1151253, “Further membranolide diterpenes from the antarctic sponge dendrilla membranosa” (2004).

In the case of `CO[C@@H]1O[C@@H](OC)c2c1ccc([C@@]1(C)CCCC(C)(C)C1)c2[C@@H](C)C(=O)O` [MEMBRANOLIDE C], the zone of inhibition at 200 µg/disc in the assay on Candida albicans came out at 4 mm; with Escherichia coli it was 8 mm; in the assay with Staphylococcus aureus, 0 mm.

Regarding `CO[C@H]1O[C@@H](OC)c2c1ccc([C@@]1(C)CCCC(C)(C)C1)c2[C@@H](C)C(=O)O` [MEMBRANOLIDE D], the zone of inhibition at 200 µg/disc stood at 9 mm in the assay on Candida albicans, 6 mm with Escherichia coli and 7 mm with Staphylococcus aureus.
